Test results from patent publication US8618023B2, “Microbiocides” (Syngenta Crop Protection, LLC, priority 2006, dated 2013).

SMILES	melting point [°C]
Cn1cc(C(=O)NC2CC2c2ccc(Cl)cc2)c(C(F)F)n1 (centres unmarked) [Compound 1.001, 3-difluoromethyl-1-methyl-1H-pyrazole-4-carboxylic acid [2-(4-chlorophenyl)-cyclopropyl]-amide]	127
O=C(N[C@@H]1C[C@]1(F)c1ccc(Cl)cc1)c1ccccc1C(F)(F)F [Compound 6.004, N-[(1R,2S)-2-(4-chlorophenyl)-2-fluoro-cyclopropyl]-2-trifluoromethyl-benzamide]	204 to 206
